Source: the METLIN SMRT retention time set (Domingo-Almenara et al. 2019)

Assay: gradient 5% acetonitrile 3 min, to 50% in 2 min, to 85% in 15 min, held 3 min, 100 µL/min
Conditions: column: Zorbax Extend-C18 2.1 x 50 mm; eluents: water / acetonitrile, 0.1% formic acid
Procedure, shortened: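 In both positive and negative ionization mode, a quadrupole time-of-flight mass spectrometer coupled to HPLC analyzed pure standards run in mixtures of ~100 molecules. The Zorbax Extend-C18 column (2.1 × 50 mm, 1.8 μm) was operated at 100 μL/min with water and acetonitrile, each containing 0.1% formic acid. The dead volume was 40 μL and the dwell volume 900 μL. Retention time came from adduct peaks that were computationally picked and individually inspected by hand.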

Work on `O=C(CCc1conc1-c1ccc(F)cc1)NC1CCN(Cc2ccccc2)CC1` yielded an RP-LC retention time of 657 s.

In the case of `Cc1ccc(-n2nc3c(=O)n(CC(=O)NC4CCCC4)nc(C)c3c2C)cc1`, the RP-LC retention time is reported as 795 s.

With `CC(NC(=O)Cn1cc(C(=O)C(=O)N2CCOCC2)c2ccccc21)c1ccc2c(c1)OCCCO2` (stereo unspecified) the RP-LC retention time was 787 s.

Compound `O=C(Nc1cnc(N2CCCCC2)nc1)c1ccc(Cl)s1` has an RP-LC retention time of 1020 s.

Work on `O=C(NC1CCCCCCC1)C1CCN(S(=O)(=O)c2ccc(-c3noc(C4CC4)n3)cc2)CC1` yielded an RP-LC retention time of 1120 s.

`Cc1noc(COC2CCCN(C(=O)c3ccc4cc[nH]c4c3)C2)n1` (stereo unspecified) showed an RP-LC retention time of 570 s.

Work on `Cc1oc(C2CCN(C(=O)Cc3c(F)cccc3Cl)CC2)nc1C(=O)N1CCCCC1` yielded an RP-LC retention time of 886 s.

`CCOC(=O)C1=C(CN2CCN(c3ccccn3)CC2)NC(=O)NC1c1cccc(OC)c1OC` (stereo unspecified) showed an RP-LC retention time of 615 s.

In the case of `CCN(CC)S(=O)(=O)c1ccc(NC(=O)c2ccc3c(=O)n4c(nc3c2)CCCCC4)cc1`, the RP-LC retention time is reported as 875 s.

`CCc1nn2c(nnc3c(=O)n(CCc4c[nH]c5ccccc45)ccc32)c1-c1ccc(F)cc1` showed an RP-LC retention time of 1040 s.

With `Cc1ccc(NC(=O)CN2C(=O)C3CCCCN3c3ccc(S(=O)(=O)N(C)C)cc32)c(C)c1` (stereo unspecified) the RP-LC retention time was 994 s.

Compound `Cc1nc(Nc2ccc(Br)cn2)sc1C(=O)NC1CC1` has an RP-LC retention time of 735 s.

With `Fc1ccccc1CNc1nnc(-c2nc(C3CC3)no2)c2ccccc12` the RP-LC retention time was 952 s.

Compound `Cc1ccn2cc(-c3ccc(NS(=O)(=O)c4ccc5ccccc5c4)cc3)nc2n1` has an RP-LC retention time of 690 s.

For `O=C(Cc1cccc(Cl)c1)N1CC2CN(S(=O)(=O)c3cccc(F)c3)CC(C1)O2`, the RP-LC retention time was 900 s.

With `O=C(CCc1c[nH]c2ccccc12)N1CC(n2ccnc2)C1` the RP-LC retention time was 588 s.

Work on `Cc1ccc(C(=O)N2CCC(N3C(=O)C(O)C34CCCCC4)CC2)s1` (stereo unspecified) yielded an RP-LC retention time of 678 s.

Work on `Cc1cc(N2CCN(C(=O)c3ccccc3)CC2)nc2nncn12` yielded an RP-LC retention time of 558 s.

Compound `O=C(CSc1nnc2c3sc(N4CCCC4)nc3ncn12)Nc1cccc(Cl)c1` has an RP-LC retention time of 874 s.

In the case of `CCC1Oc2ccc(S(=O)(=O)N3CCC(C(=O)NCCc4ccccc4)CC3)cc2NC1=O` (stereo unspecified), the RP-LC retention time is reported as 872 s.

`COc1cc(Cl)c(C)cc1NC(=O)Cn1ncc2c(N3CCN(c4ccccn4)CC3)ncnc21` showed an RP-LC retention time of 678 s.

Compound `O=S(=O)(c1cccn2c(SCc3ccccc3Cl)nnc12)N1CCCCC1` has an RP-LC retention time of 927 s.

`CC(=O)Nc1ccc(NC(=O)C2CCCN(c3ccc(=O)n(-c4ccc(C)c(Cl)c4)n3)C2)cc1` (stereo unspecified) gave an RP-LC retention time of 768 s.

Compound `Cn1cccc1C(=O)Nc1cnn(-c2ncc(N3CCSCC3)cn2)c1` has an RP-LC retention time of 768 s.

With `Cc1c(C(C)(C(=O)O)c2c(C)n(C)c3ccccc23)c2ccccc2n1C` the RP-LC retention time was 677 s.

`CC(C)OCCCNC(=O)CCc1c(-c2ccc(Br)cc2)nc2ccccn12` gave an RP-LC retention time of 652 s.

Work on `Cc1cn(C)c(CC(=O)NCCN2CCCCC2)c1C(=O)O` yielded an RP-LC retention time of 578 s.

Compound `CCc1nc2cc(N3CCC(C(=O)NC(C)C)CC3)cnc2nc1CC` has an RP-LC retention time of 704 s.

In the case of `Cc1cccc(CNC(=O)CN2CCN(Cc3ccccc3)C2=O)c1`, the RP-LC retention time is reported as 808 s.

With `CCOc1ccccc1NC(=O)N1CCC(n2cnc3c(Cl)cccc3c2=O)CC1` the RP-LC retention time was 889 s.

Compound `COc1ccccc1N1CCN(C(=O)CCc2c(C)n(C)c3nc(-c4ccccc4)nn3c2=O)CC1` has an RP-LC retention time of 761 s.

Compound `CCn1cc(CN2CC(F)(F)C[C@H]2COc2ccncc2)c2ccccc21` has an RP-LC retention time of 670 s.

Work on `CN1c2cc(C(=O)NCCCc3ccccc3)ccc2C(=O)N2CCCCC21` (stereo unspecified) yielded an RP-LC retention time of 885 s.

Compound `COc1ccc(CN2CC3(CCN(S(=O)(=O)c4cc(C)ccc4C)CC3)C2=O)cc1` has an RP-LC retention time of 932 s.

`Cc1cc(N2CCN(C(=O)c3ccc(N(C)C)cc3)CC2)nc2nncn12` gave an RP-LC retention time of 575 s.

With `COc1cc(Cc2nc(-c3ccc4nnc(C)n4c3)no2)cc(OC)c1` the RP-LC retention time was 796 s.
